Measurements reported in US11866431B2, “Bicyclic compounds” (Vivace Therapeutics, Inc., priority 2018, dated 2024).

What follows are molecules tested on 8XTBD luciferase reporter (YAP reporter) in HEK293T cells (assay: YAP Reporter Assay). Details: Homo sapiens, HEK-293T; HEK293T cells stably transfected with 8XTBD luciferase reporter and pRLTK; 24-hr incubation; top concentration 3 μM; read-out: Firefly Luciferase IC50.
Assay type: cell-based
In short: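 HEK293T cells stably carrying 8XTBD firefly luciferase and TK-renilla (3×10^3 cells/well) dosed 3-4 h after plating with compounds from 3 μM final, 1:3 dilution, 10 points, quadruplicates. After 24 h at 37° C, Dual-Glo readings gave IC50 and maximum inhibition reported separately for firefly and renilla.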

Question: With `C[C@@H](NC(=O)c1ccc2c(-c3ccc(C(F)(F)F)cc3)cccc2c1)C1CN(C2CC2)C1` [Compound 320, (R)-N-(1-(1-cyclopropylazetidin-3-yl)ethyl)-5-(4-(trifluoromethyl)phenyl)-2-naphthamide] as the molecule, how does the IC50 read?
Answer: Its IC50 is 100 to 1000 nM.

Question: How did the IC50 turn out when `COc1cc(-c2ccc(C(F)(F)F)cc2F)c2ncc(C(=O)O)cc2c1` [Compound 321, 8-(2-fluoro-4-(trifluoromethyl)phenyl)-6-methoxyquinoline-3-carboxylic Acid] was run?
Answer: Its IC50 is less than 100 nM.

Question: `COc1cc(-c2ccc(C(F)(F)F)cc2)c2ccc(C(=O)O)cc2c1` [Compound 322, 7-methoxy-5-(4-(trifluoromethyl)phenyl)-2-naphthoic Acid] was tested. Which IC50 did it give?
Answer: The IC50 was less than 100 nM.

Question: Which IC50 does the source give for `O=C(O)c1cnc2c(-c3ccc(C(F)(F)F)cc3)cc(OC3CC3)cc2c1` [Compound 323, 6-cyclopropoxy-8-(4-(trifluoromethyl)phenyl)quinoline-3-carboxylic acid] here?
Answer: The IC50 was less than 100 nM.

Question: `O=C(O)c1cnc2c(-c3ccc(C(F)(F)F)cc3)cc(OC(F)(F)F)cc2c1` [Compound 324, 6-(Trifluoromethoxy)-8-[4-(trifluoromethyl)phenyl]quinoline-3-carboxylic acid] was tested. Which IC50 did it give?
Answer: Its IC50 is less than 100 nM.

Question: `COc1cc(-c2ccc(C(F)(F)F)cc2)c2ncc(C(=O)O)cc2c1` [Compound 325, 6-methoxy-8-(4-(trifluoromethyl)phenyl)quinoline-3-carboxylic acid] was tested. Which IC50 did it give?
Answer: Its IC50 is less than 100 nM.

Question: `O=C(O)c1cnc2c(-c3ccc(C(F)(F)F)cc3)cc(Cl)c(Cl)c2c1` [Compound 326, 5,6-dichloro-8-(4-(trifluoromethyl)phenyl)quinoline-3-carboxylic Acid] was tested. Which IC50 did it give?
Answer: The IC50 was less than 100 nM.

Question: How did the IC50 turn out when `CCOc1cc(-c2ccc(C(F)(F)F)cc2)c2ncc(C(=O)O)cc2c1` [Compound 327, 6-ethoxy-8-(4-(trifluoromethyl)phenyl)quinoline-3-carboxylic Acid] was run?
Answer: The IC50 was less than 100 nM.

Question: `O=C(O)c1cnc2c(-c3ccc(C(F)(F)F)cc3)cc(F)c(F)c2c1` [Compound 328, 5,6-difluoro-8-(4-(trifluoromethyl)phenyl)quinoline-3-carboxylic Acid] was tested. Which IC50 did it give?
Answer: The IC50 was less than 100 nM.

Question: For `O=C(O)c1ccc2c(-c3ccc(S(F)(F)(F)(F)F)cc3)cccc2c1` [Compound 329, 5-[4-(pentafluoro-sulfanyl)phenyl]naphthalene-2-carboxylic Acid], which IC50 is on record?
Answer: Its IC50 is less than 100 nM.

Question: `O=C(O)c1ccc2c(-c3ccc(C(F)(F)F)cc3)cccc2c1` [Compound 330, 5-[4-(trifluoromethyl)phenyl]naphthalene-2-carboxylic Acid] was tested. Which IC50 did it give?
Answer: The IC50 was less than 100 nM.

Question: `O=C(O)c1ccc2c(-c3ccc(C(F)(F)F)nc3)cccc2c1` [Compound 331, 5-(6-(trifluoromethyl)pyridin-3-yl)-2-naphthoic Acid] was tested. Which IC50 did it give?
Answer: The IC50 was 100 to 1000 nM.

Question: With `O=C(O)c1ccc2c(-c3ccc(C(F)(F)F)s3)cccc2c1` [Compound 332, 5-[5-(trifluoromethyl)-2-thienyl]naphthalene-2-carboxylic acid] as the molecule, how does the IC50 read?
Answer: Its IC50 is less than 100 nM.

Question: `O=C(O)c1ccc2c(-c3ccc(C(F)(F)F)cc3)cccc2n1` [Compound 333, 5-(4-(trifluoromethyl)phenyl)quinoline-2-carboxylic Acid] was tested. Which IC50 did it give?
Answer: The IC50 was 100 to 1000 nM.

Question: For `O=C(O)c1cnc2c(-c3ccc(C(F)(F)F)cc3)cccc2n1` [Compound 334, 5-(4-(trifluoromethyl)phenyl)quinoxaline-2-carboxylic Acid], which IC50 is on record?
Answer: Its IC50 is 100 to 1000 nM.

Question: For `O=C(O)c1ccc2c(-c3ccc(C(F)(F)F)cc3)cccc2c1O` [Compound 335, 1-hydroxy-5-(4-(trifluoromethyl)phenyl)-2-naphthoic Acid], which IC50 is on record?
Answer: Its IC50 is less than 100 nM.

Question: With `O=C(O)c1ccc2c(-c3ccc(C(F)(F)F)cc3)cncc2c1` [Compound 336, 4-[4-(trifluoromethyl)phenyl]isoquinoline-7-carboxylic Acid] as the molecule, how does the IC50 read?
Answer: Its IC50 is 100 to 1000 nM.

Question: How did the IC50 turn out when `Cn1cc(-c2ccc(C(F)(F)F)cc2)c2ccc(C(=O)O)cc2c1=O` [Compound 337, 2-methyl-1-oxo-4-[4-(trifluoromethyl)phenyl]isoquinoline-7-carboxylic Acid] was run?
Answer: The IC50 was 100 to 1000 nM.
